Measurements from US5672715A, “Herbicidal substituted 3-aryl-pyrazoles” (Monsanto Company, priority 1995, dated 1997).
Where “and” joins values, the source holds several entries; their conditions need not be identical. Identical values can stand only once.

What was measured:
Type in all cases: in vivo
[1] = test system: Barnyardgrass; assay: pre-emergence herbicide test; conditions: 0.25 lb/A; for inhibition at 280.212 g/ha: Echinochloa crus-galli, pre-emergence, read-out: % plant inhibition
Experimental: (§1) Topsoil was placed in an aluminum pan and compacted to a depth of 1.3 to 1.6 cm from the top of the pan. On the top of the soil was placed a predetermined number of seeds of each of several monocotyledonous and dicotyledonous annual plant species and/or vegetative propagules of various perennial plant species. The pan was then level filled with a cover layer of topsoil to which was added a known amount of active ingredient either prior to or after application of the cover layer. The active ingredient was dissolved or suspended in an organic solvent, e.g., acetone, or water as carrier for application to the cover layer. The pans were moved to a greenhouse bench where they were thereafter watered from below as needed to give adequate moisture for germination and growth. In some cases, an initial overhead irrigation of 1/4 inch of water was applied immediately after treatment.
(§2) Approximately 14 days after seeding and treating, the pans were observed and the results (% inhibition) were recorded.
(§3) The tables below summarize the results of the pre-emergence herbicidal activity tests of compounds of this invention tested with warm season plants (Tables 2a-2d) and cool season plants (Tables 3a and 3b). The herbicidal rating shown in these tables is the percent inhibition of each plant species. The plant species usually regarded as weeds are identified in the tables by single letter headings and crop species identified by two letter headings both headings being above the columns in accordance with the following legend: […]

[2] = test system: Bedstraw Catchweed; assay: pre-emergence herbicide test; conditions: Galium aparine, pre-emergence, 0.25 lb/A; read-out: % plant inhibition
Experimental: as §1, §2, §3

[3] = test system: Birdseye Speedwell; assay: pre-emergence herbicide test; conditions: pre-emergence, 0.25 lb/A; read-out: % plant inhibition
Experimental: as §1, §2, §3

[4] = test system: Blackgrass; assay: pre-emergence herbicide test; conditions: Alopecurus myosuroides, pre-emergence, 0.25 lb/A; read-out: % plant inhibition
Experimental: as §1, §2, §3

[5] = test system: Common Chickweed; assay: pre-emergence herbicide test; conditions: pre-emergence, 0.25 lb/A; read-out: % plant inhibition
Experimental: as §1, §2, §3

[6] = test system: Corn; assay: pre-emergence herbicide test; conditions: Zea mays, pre-emergence, 0.25 lb/A; read-out: % plant inhibition
Experimental: as §1, §2, §3

[7] = test system: Downy Brome; assay: pre-emergence herbicide test; conditions: Bromus tectorum, pre-emergence, 0.25 lb/A; read-out: % plant inhibition
Experimental: as §1, §2, §3

[8] = test system: Giant Foxtail; assay: pre-emergence herbicide test; conditions: 0.25 lb/A; for inhibition at 280.212 g/ha: Setaria faberi, pre-emergence, read-out: % plant inhibition
Experimental: as §1, §2, §3

[9] = test system: Green Foxtail; assay: pre-emergence herbicide test; conditions: Setaria viridis, pre-emergence; 0.25 lb/A; read-out: % plant inhibition
Experimental: as §1, §2, §3

[10] = test system: Morning Glory; assay: pre-emergence herbicide test; conditions: 0.25 lb/A
Experimental: as §1, §2, §3

[11] = test system: Rape; assay: pre-emergence herbicide test; conditions: pre-emergence, 0.25 lb/A; read-out: % plant inhibition
Experimental: as §1, §2, §3

[12] = test system: Soybean; assay: pre-emergence herbicide test; conditions: 0.25 lb/A
Experimental: as §1, §2, §3

[13] = test system: Wheat; assay: pre-emergence herbicide test; conditions: Triticum aestivum, pre-emergence, 0.25 lb/A; read-out: % plant inhibition
Experimental: as §1, §2, §3

[14] = test system: Wild Oats; assay: pre-emergence herbicide test; conditions: Avena fatua, pre-emergence, 0.25 lb/A; read-out: % plant inhibition
Experimental: as §1, §2, §3

[15] = test system: Barnyardgrass; assay: post-emergence herbicide test; conditions: Echinochloa crus-galli, post-emergence, 0.25 lb/A; read-out: % plant inhibition
Excerpt: (§4) Topsoil was placed in aluminum pans having holes in the bottom and compacted to a depth of 1.3 to 1.6 cm from the top of the pan. A predetermined number of seeds of each of several dicotyledonous and monocotyledonous annual plant species and/or vegetative propagules for the perennial plant species were placed on the soil and pressed into the soil surface. The seeds and/or vegetative propagules were covered with soil and leveled. The pans were then placed on a bench in the greenhouse and watered either from overheard irrigation or by subirrigation as needed. After the plants reach the desired age (two to three weeks), each pan, is removed individually to a spraying chamber and sprayed by means of an atomizer, operating at a spray pressure of 170.3 kPa […] at the application rates noted. In the spray solution was an amount of an emulsifying agent mixture to give a spray solution or suspension which contains about 0.4% by volume of the emulsifier. The spray solution or suspension contained a sufficient amount of the candidate chemical in order to give application rates of the active ingredient corresponding to those shown in Tables 4 and 5, while applying a total amount of solution or suspension equivalent to 1870 L/Ha (200 gallons/acre). […] The post-emergent herbicidal activity shown in these tables is the percent inhibition of each plant species. Testing with warm season and cool season plants is shown in tables 4a-4d and […], respectively.

[16] = test system: Bedstraw Catchweed; assay: post-emergence herbicide test; conditions: Galium aparine, post-emergence, 0.25 lb/A; read-out: % plant inhibition
Excerpt: as §4

[17] = test system: Birdseye Speedwell; assay: post-emergence herbicide test; conditions: post-emergence, 0.25 lb/A; read-out: % plant inhibition
Excerpt: as §4

[18] = test system: Blackgrass; assay: post-emergence herbicide test; conditions: Alopecurus myosuroides, post-emergence, 0.25 lb/A; read-out: % plant inhibition
Excerpt: as §4

[19] = test system: Cocklebur; assay: post-emergence herbicide test; conditions: Xanthium strumarium, post-emergence, 0.25 lb/A; read-out: % plant inhibition
Excerpt: as §4

[20] = test system: Common Chickweed; assay: post-emergence herbicide test; conditions: post-emergence, 0.25 lb/A; read-out: % plant inhibition
Excerpt: as §4

[21] = test system: Corn; assay: post-emergence herbicide test; conditions: Zea mays, post-emergence, 0.25 lb/A; read-out: % plant inhibition
Excerpt: as §4

[22] = test system: Downy Brome; assay: post-emergence herbicide test; conditions: Bromus tectorum, post-emergence, 0.25 lb/A; read-out: % plant inhibition
Excerpt: as §4

[23] = test system: Giant Foxtail; assay: post-emergence herbicide test; conditions: Setaria faberi, post-emergence, 0.25 lb/A; read-out: % plant inhibition
Excerpt: as §4

[24] = test system: Green Foxtail; assay: post-emergence herbicide test; conditions: Setaria viridis, post-emergence, 0.25 lb/A; read-out: % plant inhibition
Excerpt: as §4

[25] = test system: Morning Glory; assay: post-emergence herbicide test; conditions: Ipomoea, post-emergence, 0.25 lb/A; read-out: % plant inhibition
Excerpt: as §4

[26] = test system: Rape; assay: post-emergence herbicide test; conditions: post-emergence, 0.25 lb/A; read-out: % plant inhibition
Excerpt: as §4

[27] = test system: Seedling Johnsongrass; assay: post-emergence herbicide test; conditions: Sorghum halepense, post-emergence, 0.25 lb/A; read-out: % plant inhibition
Excerpt: as §4

[28] = test system: Soybean; assay: post-emergence herbicide test; conditions: Glycine max, post-emergence, 0.25 lb/A; read-out: % plant inhibition
Excerpt: as §4

[29] = test system: Velvetleaf; assay: post-emergence herbicide test; conditions: Abutilon theophrasti, post-emergence, 0.25 lb/A; read-out: % plant inhibition
Excerpt: as §4

[30] = test system: Wheat; assay: post-emergence herbicide test; conditions: Triticum aestivum, post-emergence, 0.25 lb/A; read-out: % plant inhibition
Excerpt: as §4

[31] = test system: Wild Oats; assay: post-emergence herbicide test; conditions: Avena fatua, post-emergence, 0.25 lb/A; read-out: % plant inhibition
Excerpt: as §4

[32] = test system: Seedling Johnsongrass; assay: pre-emergence herbicide test; conditions: 0.25 lb/A
Experimental: as §1, §2, §3

[33] = test system: Velvetleaf; assay: pre-emergence herbicide test; conditions: 0.25 lb/A
Experimental: as §1, §2, §3

| SMILES | inhibition at 280.212 g/ha [1] [%] | inhibition at 280.212 g/ha [2] [%] | inhibition at 280.212 g/ha [3] [%] | inhibition at 280.212 g/ha [4] [%] | inhibition at 280.212 g/ha [5] [%] | inhibition at 280.212 g/ha [6] [%] | inhibition at 280.212 g/ha [7] [%] | inhibition at 280.212 g/ha [8] [%] | inhibition at 280.212 g/ha [9] [%] | inhibition at 280.212 g/ha [11] [%] | inhibition at 280.212 g/ha [13] [%] | inhibition at 280.212 g/ha [14] [%] | inhibition at 280.212 g/ha [15] [%] | inhibition at 280.212 g/ha [16] [%] | inhibition at 280.212 g/ha [17] [%] | inhibition at 280.212 g/ha [18] [%] | inhibition at 280.212 g/ha [19] [%] | inhibition at 280.212 g/ha [20] [%] | inhibition at 280.212 g/ha [21] [%] | inhibition at 280.212 g/ha [22] [%] | further results |
| --- | --- | --- | --- | --- | --- | --- | --- | --- | --- | --- | --- | --- | --- | --- | --- | --- | --- | --- | --- | --- | --- |
| Cc1c(-c2cc(C(=O)O)c(Cl)cc2F)nn(C)c1C(F)(F)F [Compound 2, 2-Chloro-5-[1,4-dimethyl-5-(trifluoromethyl)-1H-pyrazol-3-yl]-4-fluorobenzoic acid] | 0 | 50 | 55 | 15 | 60 | 0 | 25 | 0 | 25 | 20 | 7 | 15 | 15 | 50 | 80 | 10 | 70 | 70 | 3 | 0 | % plant inhibition [10]: 30%; inhibition at 280.212 g/ha ([10]; Ipomoea, pre-emergence, read-out: % plant inhibition): 35%; % plant inhibition [12]: 5% and 0%; inhibition at 280.212 g/ha [23]: 0%; inhibition at 280.212 g/ha [24]: 15%; inhibition at 280.212 g/ha [25]: 45%; inhibition at 280.212 g/ha [26]: 0%; inhibition at 280.212 g/ha [27]: 20%; inhibition at 280.212 g/ha [28]: 20%; inhibition at 280.212 g/ha [29]: 85%; inhibition at 280.212 g/ha [30]: 0%; inhibition at 280.212 g/ha [31]: 0% |
| COC(=O)c1cc(-c2nn(C)c(C(F)(F)F)c2C)c(F)cc1Cl [Compound 18] | 95 | 100 | 100 | 95 | 100 | 15 | 85 | 95 | 100 | 100 | 0 | 80 | 5 | 65 | 60 | 20 | 65 | 35 | 15 | 25 | % plant inhibition [1]: 99% and 93%; % plant inhibition [8]: 100% and 99%; % plant inhibition [32]: 95% and 85%; inhibition at 280.212 g/ha ([32]; Sorghum halepense, pre-emergence, read-out: % plant inhibition): 90%; % plant inhibition [33]: 100%; inhibition at 280.212 g/ha ([33]; Abutilon theophrasti, pre-emergence, read-out: % plant inhibition): 98%; inhibition at 280.212 g/ha [23]: 5%; inhibition at 280.212 g/ha [24]: 20%; inhibition at 280.212 g/ha [25]: 50%; inhibition at 280.212 g/ha [26]: 15%; inhibition at 280.212 g/ha [27]: 35%; inhibition at 280.212 g/ha [28]: 40%; inhibition at 280.212 g/ha [29]: 90%; inhibition at 280.212 g/ha [30]: 7%; inhibition at 280.212 g/ha [31]: 20% |
